Source: the NIST ThermoML archive (doi:10.1016/j.jct.2017.10.002)
“And” between values parts separate entries of the source, which are not always exact repeats. Equal values may be shown once.

Experiment: molar heat capacity at constant pressure
Conditions: 101.33 kPa, relaxation calorimetry

CCc1ncc[n-]1.CCc1ncc[n-]1.[Zn+2] [zinc(II) 2-ethylimidazolide]
molar heat capacity at constant pressure
Conditions	Crystal	Glass
1 K	–	0.01063 J/K/mol
1.832 K	0.0493 J/K/mol	–
1.836 K	0.01638 J/K/mol	–
1.837 K	0.04503 J/K/mol	–
1.839 K	–	0.03581 J/K/mol
1.88 K	0.05213 J/K/mol	–
1.914 K	0.04977 J/K/mol	–
1.915 K	–	0.04142 J/K/mol
1.916 K	0.0188 J/K/mol	–
1.932 K	0.05559 J/K/mol	–
1.989 K	0.0603 J/K/mol	–
2 K	0.0589 J/K/mol [middle of 4 runs]	0.04827 J/K/mol
2.001 K	–	0.04687 J/K/mol
2.005 K	0.02171 J/K/mol	–
2.051 K	0.06589 J/K/mol	–
2.09 K	0.06722 J/K/mol	–
2.091 K	–	0.05348 J/K/mol
2.099 K	0.02469 J/K/mol	–
2.118 K	0.07352 J/K/mol	–
2.183 K	0.07697 J/K/mol	–
2.184 K	–	0.06212 J/K/mol
2.19 K	0.08177 J/K/mol	–
2.197 K	0.02817 J/K/mol	–
2.265 K	0.0916 J/K/mol	–
2.283 K	0.08765 J/K/mol	–
2.285 K	–	0.07138 J/K/mol
2.301 K	0.03272 J/K/mol	–
2.346 K	0.1035 J/K/mol	–
2.41 K	0.03888 J/K/mol	–
2.411 K	0.1031 J/K/mol	–
2.417 K	–	0.08449 J/K/mol
2.488 K	0.1258 J/K/mol	–
2.509 K	–	0.09566 J/K/mol
2.512 K	0.1183 J/K/mol	–
2.516 K	0.04352 J/K/mol	–
2.61 K	0.1475 J/K/mol	–
2.615 K	0.135 J/K/mol	–
2.639 K	0.0517 J/K/mol	–
2.646 K	–	0.1124 J/K/mol
2.733 K	0.1558 J/K/mol	–
2.738 K	–	0.1254 J/K/mol
2.739 K	0.1709 J/K/mol	–
2.744 K	0.0566 J/K/mol	–
2.854 K	0.06599 J/K/mol	–
2.858 K	0.194 J/K/mol	–
2.86 K	0.1727 J/K/mol	–
2.868 K	–	0.1481 J/K/mol
2.979 K	0.1934 J/K/mol	–
2.986 K	0.2216 J/K/mol	0.1712 J/K/mol
2.992 K	0.07481 J/K/mol	–
3 K	0.2257 J/K/mol and 0.076 J/K/mol and 0.2038 J/K/mol	0.168 J/K/mol
3.106 K	0.08446 J/K/mol	–
3.109 K	0.2254 J/K/mol	–
3.118 K	0.2529 J/K/mol	–
3.122 K	–	0.1906 J/K/mol
3.246 K	0.09833 J/K/mol	–
3.248 K	0.2525 J/K/mol	–
3.259 K	0.2898 J/K/mol	–
3.264 K	–	0.2232 J/K/mol
3.388 K	0.2988 J/K/mol	–
3.395 K	0.1127 J/K/mol	–
3.397 K	–	0.2534 J/K/mol
3.407 K	0.3327 J/K/mol	–
3.536 K	0.3331 J/K/mol	–
3.537 K	0.1275 J/K/mol	–
3.551 K	–	0.2838 J/K/mol
3.562 K	0.381 J/K/mol	–
3.691 K	0.3887 J/K/mol	–
3.692 K	0.1432 J/K/mol	–
3.699 K	–	0.3307 J/K/mol
3.737 K	0.4416 J/K/mol	–
3.853 K	0.4343 J/K/mol and 0.1693 J/K/mol	–
3.861 K	–	0.3658 J/K/mol
3.916 K	0.5079 J/K/mol	–
4 K	0.5386 J/K/mol and 0.1872 J/K/mol and 0.4762 J/K/mol	0.4158 J/K/mol
4.023 K	0.1911 J/K/mol	–
4.024 K	0.4906 J/K/mol	–
4.033 K	–	0.4343 J/K/mol
4.093 K	0.5776 J/K/mol	–
4.203 K	0.2234 J/K/mol	–
4.204 K	0.5288 J/K/mol	–
4.213 K	–	0.4859 J/K/mol
4.288 K	0.6588 J/K/mol	–
4.385 K	0.6193 J/K/mol	–
4.39 K	0.2481 J/K/mol	–
4.397 K	–	0.5485 J/K/mol
4.475 K	0.7416 J/K/mol	–
4.577 K	0.2815 J/K/mol	–
4.58 K	0.6992 J/K/mol	–
4.588 K	–	0.6228 J/K/mol
4.673 K	0.833 J/K/mol	–
4.782 K	0.3148 J/K/mol	–
4.784 K	0.7873 J/K/mol	–
4.797 K	–	0.7076 J/K/mol
4.885 K	0.9362 J/K/mol	–
4.995 K	0.8682 J/K/mol and 0.3599 J/K/mol	–
5 K	0.9962 J/K/mol and 0.3674 J/K/mol and 0.8773 J/K/mol	0.8029 J/K/mol
5.008 K	–	0.8138 J/K/mol
5.104 K	1.051 J/K/mol	–
5.217 K	0.968 J/K/mol and 0.4058 J/K/mol	–
5.228 K	–	0.8928 J/K/mol
5.341 K	1.18 J/K/mol	–
5.447 K	1.121 J/K/mol	–
5.449 K	0.4865 J/K/mol	–
5.457 K	–	1.022 J/K/mol
5.583 K	1.326 J/K/mol	–
5.686 K	0.5523 J/K/mol	–
5.687 K	1.228 J/K/mol	–
5.699 K	–	1.17 J/K/mol
5.837 K	1.479 J/K/mol	–
5.933 K	1.341 J/K/mol	–
5.936 K	0.614 J/K/mol	–
5.952 K	–	1.278 J/K/mol
6 K	1.585 J/K/mol and 0.6261 J/K/mol and 1.401 J/K/mol	1.321 J/K/mol
6.1 K	1.651 J/K/mol	–
6.189 K	1.538 J/K/mol	–
6.195 K	0.6531 J/K/mol	–
6.204 K	–	1.457 J/K/mol
6.407 K	1.86 J/K/mol	–
6.464 K	0.7855 J/K/mol	–
6.465 K	1.656 J/K/mol	–
6.479 K	–	1.613 J/K/mol
6.685 K	2.057 J/K/mol	–
6.752 K	1.863 J/K/mol and 0.8975 J/K/mol	–
6.765 K	–	1.809 J/K/mol
6.98 K	2.277 J/K/mol	–
7 K	2.294 J/K/mol and 0.9817 J/K/mol and 2.037 J/K/mol	1.956 J/K/mol
7.049 K	2.08 J/K/mol and 1.007 J/K/mol	–
7.062 K	–	1.981 J/K/mol
7.296 K	2.524 J/K/mol	–
7.357 K	2.322 J/K/mol and 1.115 J/K/mol	–
7.372 K	–	2.248 J/K/mol
7.627 K	2.797 J/K/mol	–
7.681 K	1.273 J/K/mol	–
7.686 K	2.488 J/K/mol	–
7.698 K	–	2.428 J/K/mol
7.976 K	3.092 J/K/mol	–
8 K	3.113 J/K/mol and 1.446 J/K/mol and 2.772 J/K/mol	2.689 J/K/mol
8.016 K	1.458 J/K/mol	–
8.018 K	2.783 J/K/mol	–
8.034 K	–	2.703 J/K/mol
8.339 K	3.414 J/K/mol	–
8.366 K	1.661 J/K/mol	–
8.367 K	3.093 J/K/mol	–
8.389 K	–	3.029 J/K/mol
8.718 K	3.76 J/K/mol	–
8.733 K	3.359 J/K/mol	–
8.737 K	1.859 J/K/mol	–
8.753 K	–	3.269 J/K/mol
9 K	4.029 J/K/mol and 2.004 J/K/mol and 3.588 J/K/mol	3.511 J/K/mol
9.115 K	4.141 J/K/mol	–
9.117 K	2.11 J/K/mol	–
9.118 K	3.738 J/K/mol	–
9.136 K	–	3.605 J/K/mol
9.514 K	3.952 J/K/mol	–
9.518 K	2.336 J/K/mol	–
9.529 K	4.549 J/K/mol	–
9.536 K	–	4.033 J/K/mol
9.931 K	4.428 J/K/mol	–
9.935 K	2.594 J/K/mol	–
9.953 K	–	4.356 J/K/mol
10 K	5.029 J/K/mol and 2.651 J/K/mol and 4.482 J/K/mol	4.413 J/K/mol
10.12 K	5.166 J/K/mol	–
10.35 K	4.823 J/K/mol and 2.874 J/K/mol	4.741 J/K/mol
10.59 K	5.656 J/K/mol	–
10.77 K	5.231 J/K/mol and 3.187 J/K/mol	–
10.78 K	–	5.172 J/K/mol
11.06 K	6.17 J/K/mol	–
11.24 K	5.701 J/K/mol and 3.55 J/K/mol	–
11.25 K	–	5.657 J/K/mol
11.54 K	6.677 J/K/mol	–
11.74 K	6.214 J/K/mol and 3.967 J/K/mol	–
11.75 K	–	6.171 J/K/mol
12.06 K	7.299 J/K/mol	–
12.26 K	6.744 J/K/mol and 4.399 J/K/mol	–
12.27 K	–	6.731 J/K/mol
12.59 K	7.93 J/K/mol	–
12.81 K	7.34 J/K/mol and 4.896 J/K/mol	7.322 J/K/mol
13.15 K	8.616 J/K/mol	–
13.37 K	7.965 J/K/mol and 5.426 J/K/mol	–
13.38 K	–	7.966 J/K/mol
13.74 K	9.343 J/K/mol	–
13.96 K	8.65 J/K/mol and 6.006 J/K/mol	–
13.97 K	–	8.66 J/K/mol
14.35 K	10.14 J/K/mol	–
14.57 K	9.355 J/K/mol and 6.627 J/K/mol	–
14.59 K	–	9.395 J/K/mol
14.99 K	10.97 J/K/mol	–
15 K	10.96 J/K/mol and 7.064 J/K/mol and 9.871 J/K/mol	9.887 J/K/mol
15.22 K	10.14 J/K/mol and 7.319 J/K/mol	–
15.23 K	–	10.18 J/K/mol
15.49 K	11.63 J/K/mol	–
15.72 K	7.865 J/K/mol	–
15.73 K	10.74 J/K/mol	–
15.74 K	–	10.79 J/K/mol
16.94 K	13.59 J/K/mol	–
17.17 K	12.58 J/K/mol	–
17.18 K	9.551 J/K/mol	12.66 J/K/mol
18.52 K	15.74 J/K/mol	–
18.77 K	11.5 J/K/mol	–
18.78 K	14.67 J/K/mol	–
18.79 K	–	14.78 J/K/mol
20 K	17.74 J/K/mol and 13.06 J/K/mol and 16.28 J/K/mol	16.43 J/K/mol
